Laboratory results as given in patent US9493466B2, “Treatment of cancer with TOR kinase inhibitors” (Signal Pharmaceuticals, LLC, priority 2011, dated 2016).

Tested on: U87MG tumors
Experiment: U87MG human glioblastoma xenograft model (Compound 1)
Assay type: in vivo, SCID mice
Conditions: for Tumor growth delay (TGD): to reach 1000 mm^3; for loss of initial body mass: end of first cycle (p<0.01)
Method: U87MG Human Glioblastoma Xenograft Model (Compound 1). Efficacy Studies: Groups of female SCID mice bearing U87MG tumors (n=8-10/group) were dosed orally with vehicle or Compound 1 throughout the study, starting when tumor volumes reached approximately 200 mm^3. The twice daily (BID) dose groups were dosed with a 10-hour separation between morning and evening doses. In the positive control group, rapamycin was administered Q3D via intraperitoneal (IP) route. At the end of each study, plasma and/or tumor samples were collected.
Cell Line and Culture. U87MG cell line was obtained from American Tissue Culture Collection (ATCC) (Gaithersberg, Md.) and grown in growth medium containing MEM, 2 mM L-glutamine, 0.1 mM non-essential amino acids and 1 mM sodium pyruvate and 10% fetal bovine serum (FBS). The cells were detached from tissue culture flasks using trypsin-EDTA. After centrifugation, the cell pellets were suspended in phosphate buffered saline (PBS) and counted using a hemocytometer. The final volume was adjusted to 5×10^6 cells/0.1 mL of PBS.
Tumor Cell Inoculation. Mice were anesthetized with inhaled isoflurane and then inoculated with U87MG tumor cells subcutaneously on the right hind leg with 0.1 mL of a single cell suspension in PBS using a sterile 1 mL syringe fitted with a 26 gauge needle. Following inoculation, the mice were returned to microisolator cages
Randomization of Animals. Following inoculation, tumors were allowed to grow to about 200 mm^3 prior to randomization. The typical number of days required for tumors to reach 200 mm^3 was 14-15 days. The tumor of each animal was measured and animals with tumors ranging between 175-250 mm^3 were included in the study. Animals from the pool were then distributed randomly into various cages and the cages were randomly assigned to vehicle, positive control, or test article groups. All of the mice were tagged with metal ear tags on the right ear.
Test Article Preparation and Administration. Suspensions of Compound 1 were prepared in aqueous 0.5% CMC and 0.25% Tween-80. The formulations were homogenized using a Teflon™ pestle and mortar (Potter-Elvehjem tissue grinder). Between the doses, the formulated compound was stored under constant stirring using a magnetic stirrer at 4° C. in the dark. The test article and vehicle were administered by oral gavage. The positive control, rapamycin, was prepared as solution in 2% ethanol, 45% polyethyleneglycol 400, and 53% saline and administered by IP injection. Sterile syringes and gavage needles were used for compound administration. All of the procedures including injections were done in biosafety cabinets disinfected with 70% ethanol prior to use.
Tumor Measurements. Tumor volumes were determined prior to the initiation of treatment and were considered as the starting volumes. Thereafter, tumors were measured twice a week for the duration of the study. The long and short axes of each tumor were measured using a digital caliper in millimeters. Tumor volumes were calculated using the formula: width^2×length/2. The tumor volumes were expressed in cubic millimeters (mm^3).
Tumor Growth Delay (TGD) Calculations. Tumor growth delay is the difference in days for treated versus control tumors to reach a volume of 1000 mm^3. The TGD was calculated from the data plotted in a graph format.
Body Weight Measurements. Initial body weights were recorded prior to the initiation of treatment using a digital scale. The percent body weight change during the course of the study was calculated using initial body weight measurements. Body weights of each animal were measured twice a week at the same time as the tumor measurements. Body weights were measured more frequently if significant decreases were noted during the course of the study.

CO[C@H]1CC[C@H](N2C(=O)CNc3ncc(-c4ccc(C(C)(C)O)nc4)nc32)CC1 [Compound 1, 7-(6-(2-hydroxypropan-2-yl)pyridin-3-yl)-1-((1r,4r)-4-methoxycyclohexyl)-3,4-dihydropyrazino-[2,3-b]pyrazin-2(1H)-one]
average tumor volume (5 mg/kg BID oral, Day 24 (dosing from Day 14)): 149±9 mm^3
average tumor volume (5 mg/kg BID oral, Day 31): 208±31 mm^3
tumor volume reduction compared with vehicle control (5 mg/kg BID oral, Day 31): 91%
change in body weight (5 mg/kg BID, 18 days): No significant change
Tumor growth delay (TGD) (5 mg/kg BID): 11 days
average tumor volume (10 mg/kg BID oral, Day 24 (dosing from Day 14)): 96±4 mm^3
average tumor volume (10 mg/kg BID oral, Day 31): 96±13 mm^3
tumor volume reduction compared with vehicle control (10 mg/kg BID oral, Day 31): 96%
loss of initial body mass (10 mg/kg BID): about 10%
Tumor growth delay (TGD) (10 mg/kg BID): 20 days
average tumor volume (25 mg/kg Q2D oral, Day 24 (dosing from Day 14)): 101±8 mm^3
average tumor volume (25 mg/kg Q2D oral, Day 31): 116±15 mm^3
tumor volume reduction compared with vehicle control (25 mg/kg Q2D oral, Day 31): 95%
loss of initial body mass (25 mg/kg Q2D): about 10%
Tumor growth delay (TGD) (25 mg/kg Q2D): 17 days
tumor regression (5 and 10 mg/kg BID and 25 mg/kg Q2D, persisted until Day 31): showed tumor regression
lowest efficacious dose as determined by 65% tumor volume inhibition (QD oral, 3 weeks): 1 mg/kg
change in body weight (QD study, 3 weeks, any of the groups): No statistically significant change
tumor volume reduction (all dose levels tested (0.5, 1, 3, 5 mg/kg QD, 3 weeks), Day 34): Significant (p<0.001) tumor volume reduction
